Key:
Mus musculus [1] = test: Tested for biodistribution of radioactivity after 3h of intravenous injection in mice stomach; format: ADME, organism-based; conditions: in vivo
Mus musculus [2] = test: Tested for biodistribution of radioactivity after 30 min of intravenous injection in mice spleen; format: ADME, organism-based; conditions: in vivo, 0.5 h
Mus musculus [3] = test: Tested for biodistribution of radioactivity after 5 min of intravenous injection in mice spleen; format: ADME, organism-based; conditions: in vivo
Mus musculus [4] = test: Tested for biodistribution of radioactivity after 30 min of intravenous injection in mice neck; format: ADME, organism-based; conditions: in vivo, 0.5 h
Mus musculus [5] = test: Tested for biodistribution of radioactivity after 24 hr of intravenous injection in mice kidneys; format: ADME, organism-based, Kidney; conditions: in vivo
Mus musculus [6] = test: Tested for biodistribution of radioactivity after 3h of intravenous injection in mice neck; format: ADME, organism-based; conditions: in vivo
Mus musculus [7] = test: Tested for biodistribution of radioactivity after 3h of intravenous injection in mice liver; format: ADME, organism-based; conditions: in vivo
Mus musculus [8] = test: Tested for biodistribution of radioactivity after 6 hr of intravenous injection in mice intestines; format: ADME, organism-based, Intestine; conditions: in vivo
Mus musculus [9] = test: Tested for biodistribution of radioactivity after 30 min of intravenous injection in mice lintestines; format: ADME, organism-based, Intestine; conditions: in vivo, 0.5 h
Mus musculus [10] = test: Tested for biodistribution of radioactivity after 24 hr of intravenous injection in mice stomach; format: ADME, organism-based; conditions: in vivo
Mus musculus [11] = test: Tested for biodistribution of radioactivity after 5 min of intravenous injection in mice liver; format: ADME, organism-based; conditions: in vivo
Mus musculus [12] = test: Tested for biodistribution of radioactivity after 24 hr of intravenous injection in mice spleen; format: ADME, organism-based; conditions: in vivo
Mus musculus [13] = test: Tested for biodistribution of radioactivity after 3h of intravenous injection in mice intestines; format: ADME, organism-based, Intestine; conditions: in vivo
Mus musculus [14] = test: Tested for biodistribution of radioactivity after 24 hr of intravenous injection in mice blood; format: ADME, organism-based; conditions: in vivo
Mus musculus [15] = test: Tested for biodistribution of radioactivity after 6 hr of intravenous injection in mice spleen; format: ADME, organism-based; conditions: in vivo
Mus musculus [16] = test: Tested for biodistribution of radioactivity after 1 hr of intravenous injection in mice neck; format: ADME, organism-based; conditions: in vivo
Mus musculus [17] = test: Tested for biodistribution of radioactivity after 6 hr of intravenous injection in mice urine; format: ADME, organism-based; conditions: in vivo
Mus musculus [18] = test: Tested for biodistribution of radioactivity after 5 min of intravenous injection in mice kidneys; format: ADME, organism-based; conditions: in vivo
Mus musculus [19] = test: Tested for biodistribution of radioactivity after 1 hr of intravenous injection in mice stomach; format: ADME, organism-based; conditions: in vivo
Mus musculus [20] = test: Tested for biodistribution of radioactivity after 3h of intravenous injection in mice spleen; format: ADME, organism-based; conditions: in vivo
Mus musculus [21] = test: Tested for biodistribution of radioactivity after 3h of intravenous injection in mice blood; format: ADME, organism-based; conditions: in vivo
Mus musculus [22] = test: Tested for biodistribution of radioactivity after 1 hr of intravenous injection in mice spleen; format: ADME, organism-based; conditions: in vivo
Mus musculus [23] = test: Tested for biodistribution of radioactivity after 6 hr of intravenous injection in mice stomach; format: ADME, organism-based; conditions: in vivo
Mus musculus [24] = test: Tested for biodistribution of radioactivity after 24 hr of intravenous injection in mice neck; format: ADME, organism-based; conditions: in vivo
Mus musculus [25] = test: Tested for biodistribution of radioactivity after 3h of intravenous injection in mice kidneys; format: ADME, organism-based, Kidney; conditions: in vivo
Mus musculus [26] = test: Tested for biodistribution of radioactivity after 6 hr of intravenous injection in mice neck; format: ADME, organism-based; conditions: in vivo
Mus musculus [27] = test: Tested for biodistribution of radioactivity after 5 min of intravenous injection in mice intestines; format: ADME, organism-based, Intestine; conditions: in vivo
Mus musculus [28] = test: Tested for biodistribution of radioactivity after 6 hr of intravenous injection in mice kidneys; format: ADME, organism-based, Kidney; conditions: in vivo
Mus musculus [29] = test: Tested for biodistribution of radioactivity after 6 hr of intravenous injection in mice feces; format: ADME, organism-based; conditions: in vivo
Mus musculus [30] = test: Tested for biodistribution of radioactivity after 6 hr of intravenous injection in mice blood; format: ADME, organism-based; conditions: in vivo
Mus musculus [31] = test: Tested for biodistribution of radioactivity after 1 hr of intravenous injection in mice intestines; format: ADME, organism-based, Intestine; conditions: in vivo
Mus musculus [32] = test: Tested for biodistribution of radioactivity after 30 min of intravenous injection in mice liver; format: ADME, organism-based; conditions: in vivo, 0.5 h
Mus musculus [33] = test: Tested for biodistribution of radioactivity after 1 hr of intravenous injection in mice blood; format: ADME, organism-based; conditions: in vivo
Mus musculus [34] = test: Tested for biodistribution of radioactivity after 30 min of intravenous injection in mice blood; format: ADME, organism-based; conditions: in vivo, 0.5 h
Mus musculus [35] = test: Tested for biodistribution of radioactivity after 5 min of intravenous injection in mice stomach; format: ADME, organism-based; conditions: in vivo
Mus musculus [36] = test: Tested for biodistribution of radioactivity after 24 hr of intravenous injection in mice intestines; format: ADME, organism-based, Intestine; conditions: in vivo
Mus musculus [37] = test: Tested for biodistribution of radioactivity after 5 min of intravenous injection in mice neck; format: ADME, organism-based; conditions: in vivo
Mus musculus [38] = test: Tested for biodistribution of radioactivity after 30 min of intravenous injection in mice stomach; format: ADME, organism-based; conditions: in vivo, 0.5 h
Mus musculus [39] = test: Tested for biodistribution of radioactivity after 5 min of intravenous injection in mice blood; format: ADME, organism-based; conditions: in vivo
Mus musculus [40] = test: Tested for biodistribution of radioactivity after 24 hr of intravenous injection in mice urine; format: ADME, organism-based; conditions: in vivo
Mus musculus [41] = test: Tested for biodistribution of radioactivity after 30 min of intravenous injection in mice kidneys; format: ADME, organism-based; conditions: in vivo, 0.5 h
Mus musculus [42] = test: Tested for biodistribution of radioactivity after 6 hr of intravenous injection in mice liver; format: ADME, organism-based; conditions: in vivo
Mus musculus [43] = test: Tested for biodistribution of radioactivity after 24 hr of intravenous injection in mice liver; format: ADME, organism-based; conditions: in vivo
Mus musculus [44] = test: Tested for biodistribution of radioactivity after 24 hr of intravenous injection in mice feces; format: ADME, organism-based; conditions: in vivo
Mus musculus [45] = test: Tested for biodistribution of radioactivity after 1 hr of intravenous injection in mice kidneys; format: ADME, organism-based, Kidney; conditions: in vivo
Mus musculus [46] = test: Tested for biodistribution of radioactivity after 1 hr of intravenous injection in mice liver; format: ADME, organism-based; conditions: in vivo

- Dose/organ (Mus musculus [1]): 0.36%
- Dose/organ (Mus musculus [2]): 0.07%
- Dose/organ (Mus musculus [3]): 0.02%
- Dose/organ (Mus musculus [4]): 0.14%
- Dose/organ (Mus musculus [5]): 0.02%
- Dose/organ (Mus musculus [6]): 0.02%
- Dose/organ (Mus musculus [7]): 4.18%
- Dose/organ (Mus musculus [8]): 1.83%
- Dose/organ (Mus musculus [9]): 9.45%
- Dose/organ (Mus musculus [10]): 0.04%
- Dose/organ (Mus musculus [11]): 92.86%
- Dose/organ (Mus musculus [12]): 0.02%
- Dose/organ (Mus musculus [13]): 6.42%
- Dose/organ (Mus musculus [14]): 0.01%
- Dose/organ (Mus musculus [15]): 0.02%
- Dose/organ (Mus musculus [16]): 0.03%
- Dose/organ (Mus musculus [17]): 63.2%
- Dose/organ (Mus musculus [18]): 0.8%
- Dose/organ (Mus musculus [19]): 0.43%
- Dose/organ (Mus musculus [20]): 0.01%
- Dose/g (Mus musculus [21]): 0.11%
- Dose/organ (Mus musculus [22]): 0.09%
- Dose/organ (Mus musculus [23]): 0.32%
- Dose/organ (Mus musculus [24]): 0.01%
- Dose/organ (Mus musculus [25]): 0.7%
- Dose/organ (Mus musculus [26]): 0.01%
- Dose/organ (Mus musculus [27]): 0.41%
- Dose/organ (Mus musculus [28]): 0.31%
- Dose/organ (Mus musculus [29]): 1.53%
- Dose/g (Mus musculus [30]): 0.04%
- Dose/organ (Mus musculus [31]): 10.73%
- Dose/organ (Mus musculus [32]): 21.18%
- Dose/g (Mus musculus [33]): 0.28%
- Dose/g (Mus musculus [34]): 1.16%
- Dose/organ (Mus musculus [35]): 0.16%
- Dose/organ (Mus musculus [36]): 0.07%
- Dose/organ (Mus musculus [37]): 0.16%
- Dose/organ (Mus musculus [38]): 0.65%
- Dose/g (Mus musculus [39]): 0.95%
- Dose/organ (Mus musculus [40]): 83.9%
- Dose/organ (Mus musculus [41]): 6.42%
- Dose/organ (Mus musculus [42]): 2.82%
- Dose/organ (Mus musculus [43]): 0.18%
- Dose/organ (Mus musculus [44]): 3.26%
- Dose/organ (Mus musculus [45]): 1.71%
- Dose/organ (Mus musculus [46]): 6.96%
Structure (SMILES): CN[C@@H](CCCCN)C(=O)NC(=O)c1cccc(I)c1

From ChEMBL document CHEMBL1127612, “Maleimidoethyl 3-(tri-n-butylstannyl)hippurate: a useful radioiodination reagent for protein radiopharmaceuticals to enhance target selective radioactivity localization” (J Med Chem, 1994)
